Here are results for 2 compounds from article PMC12125794 (Annals of Clinical Microbiology and Antimicrobials, 2025).

Assay [1] deals with T1, KPC-2 (Klebsiella pneumoniae, UniProt Q9F663). The format is biochemical.
Assay [2] concerns the target T1, KPC-2. The format is biochemical. The source holds these as a separate data set.

T1 sequence (Q9F663 25-293 limits assumed): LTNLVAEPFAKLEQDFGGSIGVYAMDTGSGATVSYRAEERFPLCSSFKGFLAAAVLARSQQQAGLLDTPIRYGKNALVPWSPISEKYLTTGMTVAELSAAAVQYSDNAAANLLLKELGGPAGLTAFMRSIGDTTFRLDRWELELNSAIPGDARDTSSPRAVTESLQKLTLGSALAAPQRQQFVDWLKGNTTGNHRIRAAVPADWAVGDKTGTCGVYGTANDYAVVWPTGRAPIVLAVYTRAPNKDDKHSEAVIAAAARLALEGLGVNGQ

For `C[C@@H](O)[C@H]1C(=O)N2C(C(=O)O)=C(S[C@@H]3CN[C@H](C(=O)N(C)C)C3)[C@H](C)[C@H]12` [meropenem], the “hydrolysis progress curves at 300 nm, 30 nM purified enzyme, 50 μM meropenem” value on KPC-2 [1] was “Compared with KPC-2, catalytic efficiencies of KPC-87 for nitrocefin and meropenem decreased sharply”.
On to `O=C(Cc1cccs1)N[C@@H]1C(=O)N2C(C(=O)O)=C(/C=C/c3ccc([N+](=O)[O-])cc3[N+](=O)[O-])CS[C@H]12` [nitrocefin], for which the “steady-state hydrolysis kinetics (Michaelis-Menten), purified enzyme” value at KPC-2 [2] was “Compared with KPC-2, catalytic efficiencies of KPC-87 for nitrocefin and meropenem decreased sharply”.
